The values below come from a melting point compilation (Tetko et al.; mined from patent text by program, amines drawn as free bases though some values may be those of a salt).

For the compound `CC(C)(O)c1cc(C(F)(F)F)cc(C(F)(F)F)c1`, the melting point (as a rule, the temperature, or range, at which the solid turns liquid) lay in the range of 59 to 60 °C.
Next, `O=C(O)CCC1=C(n2nc(-c3c(-c4ccccc4)nn4ccccc34)ccc2=O)CCCC1`: 184 to 185 °C.
For `CCCN(CCC)C(=O)CCCN1CC[C@H](CNC(=O)c2ccc(N)cc2OC)[C@H](OC)C1` (relative stereo), the melting point came to 133 °C.
Compound `CN1C(=O)C(c2cccc(O)c2)(c2cnn(CC(F)(F)F)c2)N=C1N` (stereo not given) displayed a melting point of 118 to 120 °C.
Compound `CCN1CC(=O)N(c2ccccc2C)C1=S` registered a melting point of 82 to 84 °C.
In the case of `CON=Cc1cc(N=c2sc(=S)n3n2CCCC3)c(F)cc1Cl`, the melting point lay in the range of 128 to 133 °C.
`COc1ccccc1COc1ccc(S(=O)(=O)c2ccc(C)nc2Br)cc1` came in with a melting point of 76 to 78 °C.
With `C[C@@H]1O[C@@]1(Cn1ccnc1)c1ccc(F)cc1F` the figure was 73 to 76 °C; with `CCCC=Cc1c(C(C)C)nc(C(C)C)c(C(=O)OCC)c1-c1ccc(-c2ccccc2)cc1`, 104 to 106 °C; with `O=C(O)c1cc(S(=O)(=O)n2ccc3ccccc32)ccc1Br`, 189 to 191 °C.
`Cc1ccc(Nc2ccc3c4c(cccc24)CC3)cc1` came in with a melting point of 96.2 to 96.8 °C.
`CC=CC=CC(=O)n1c(N)nc2ccccc21` yielded a melting point of 215 °C.
As for `COc1cccc(C(=O)O)c1I`, the melting point lay within 142 to 146 °C.
On to `CCCCCCCCCCCCCCCCCCSSSSCCCCCCCCCCCCCCCCCC`, for which the melting point was 44 to 45 °C.
With `C=CC(=O)Nc1ccc2ncnc(Nc3cccc(Br)c3)c2c1` the figure was 258 to 261 °C; with `COCCOc1cc(N(C)S(=O)(=O)c2nccn2C)c2[nH]c(C(=O)O)cc2c1`, 174 to 175 °C; with `Cc1cc(C(=O)Nc2ccc(OCC(C)(C)C)c(C#N)c2)nn1-c1ccc(F)cc1`, 146 to 147 °C.
`COC(=O)c1nn(Cc2ccccc2)c2ccccc12` yielded a melting point of 72 to 73 °C.
`CCOC(=O)C(=Cc1ccccn1)C(=O)C(C)C` yielded a melting point of 53 to 55 °C.
Take `COc1cc2c(cc1SCC(=O)O)oc1ccccc12`: the melting point fell in the range of 180 to 182 °C.
As for `CC(C)(C)OC(=O)N1CCC(CNC(=O)c2cc(Cl)c(N)c3c2OCC3)C(O)C1` (stereo not given), the melting point worked out at 218 °C.
In the case of `CON=C(C#N)c1ccccc1COc1ccccc1C`, the melting point was in the range of 53 to 54 °C.
`CS(=O)(=O)c1ccc(C(=O)O)c(Cl)c1-c1nccs1`: the melting point was 288 to 290 °C.
`NCC(=O)Nc1sccc1C(=O)c1ccccc1Cl` returned a melting point of 156 to 158 °C.
The compound `O=[N+]([O-])c1oc2cc(NS(=O)(=O)C(F)(F)F)ccc2c1-c1ccccc1` displayed a melting point of 114 to 120 °C.
As to `CCOC(=O)C(Cl)=Cc1cc(N(C(N)=S)c2cscc2C(=O)OC)ccc1Cl`, the melting point fell in the range of 158 to 160 °C.
As for `NC(=S)c1cc(F)c2ncc(C(=O)NCc3ccc(Cl)cc3)c(O)c2c1`, the melting point fell in the range of 247 to 248 °C.
Next, `O=C(O)c1ccc(C=CC(=O)c2ccccc2)cc1`: 222 to 224 °C; `Cn1ncc(C(=O)O)c1C(=O)Nc1ccn2nc(-c3cccc(F)n3)nc2c1`: more than 290 °C.
The compound `Cc1ccccc1-c1ccc(C(=O)N2Cc3ccc(C(=O)NCc4cccnc4)n3Cc3ccccc32)cc1C` registered a melting point of 147 to 149 °C.
`COc1ccc(CNc2nc(C)nc(C)c2Cl)cc1O` returned a melting point of 165 to 168 °C.
With `CNc1nc(-c2cccc(-c3ccc(SC)cc3)c2)c2cc(OC)c(OC)cc2n1` the figure was 140 to 142 °C.
Compound `C=CCOc1ccccc1OCC(O)CNC1CCC(NC(=O)NCC)CC1` (stereo not given) came in with a melting point of 159 to 160 °C.
As to `COC(=O)c1cc2c(Nc3ccc4[nH]ccc4c3C)c(C#N)cnc2s1`, the melting point was determined as 255 °C.
The compound `CCOP(=O)(Cc1ccc(C(=O)N2CCc3ccccc32)cc1)OCC` displayed a melting point of 93 to 94.5 °C.
`Cc1c(N)c(=O)n2c3c(cc(C(O)(C(F)(F)F)C(F)(F)F)cc13)CC2` had a melting point of 292 to 293 °C.
For the compound `CCCCOc1c(CN2C(=O)c3ccccc3C2=O)n(CCC(=O)N2CCCC2)c(=O)c2cc(Cl)c(Cl)cc12`, the melting point was determined as 222 °C.
Next, `Cc1ccc2cc(-c3cccs3)ccc2n1`: 87 °C.
For the compound `CN(Cc1ccc(NC(=O)C2=Cc3cc(-c4ccc(C(C)(C)C)cc4)ccc3OCC2)cc1)C1CCOCC1`, the melting point lay within 193 to 194 °C.
Take `CCCCCCCCCCc1ccc2ccc(C)c(O)c2c1`: the melting point is 65 to 67 °C.
For `CCCCCCCCCCNC(=O)CCCOCCO`, the melting point is 48 °C.
With `CCOC(=O)c1noc(-c2ccc(SC)cc2Cl)c1C(=O)C1CC1` the figure was 50 °C; with `C=C(C)CNc1cc(C(=O)O)cc(S(N)(=O)=O)c1Sc1ccc(NC(C)=O)cc1`, 193 to 195 °C.
In turn, `CC(C)(C)c1cc(NC(=O)Nc2ccc(Cl)c(Cl)c2)[nH]n1` returned a melting point of 178 to 179 °C.
On to `CCOC(=O)C=Cc1ccc(C(=O)Cl)cc1`, for which the melting point was found to be 76.8 °C.
`Cc1nnc(C(C)C)n1C1CC2CCC(C1)N2CCC(NC(=O)C1CCC(F)(F)CC1)c1ccc(NC(=O)COCC(=O)NCCCCCCCN)cc1` (stereo not given) registered a melting point of 100 to 102 °C.
Next, `O=C(CC(CNS(=O)(=O)c1ccc(Oc2ccccc2)cc1)c1ccc(Cl)cc1)Nc1ccc(C(=O)O)cc1` (stereo not given): 119 to 121 °C.
In the case of `CN1C(=O)C2c3c([nH]c4ncccc34)-c3nccn3C2C1=O` (stereo not given), the melting point is 222 to 224 °C.
In turn, `CCCCCCCOCCC(=O)Oc1ccc(N=Nc2ccc(OCCCCCC)cc2)cc1` displayed a melting point of 69 °C.
With `CC1=C(CC(=O)O)c2cc(F)ccc2C1` the figure was 164 to 166 °C; with `O=c1[nH]c2cscc2c(=O)n1CCN1CCN(c2ccc(F)cc2)CC1`, more than 250 °C; with `CS(=O)(=O)N1CCC(NC(=O)OCc2ccccc2)CC1`, 149 to 153 °C.
For the compound `COc1ccc2c(c1)CCC1C2=CCC2(C)C(=O)CCC12` (stereo not given), the melting point lay in the range of 139 to 143 °C.
Regarding `CC(C)COC(=O)Sc1ccc(-c2ccccc2)cc1`, the melting point was in the range of 78 to 79 °C.
Turning to `C#Cc1cc2ccccc2[nH]1`, the melting point lay within 64 to 65 °C.
`CCN(CC)C(=O)n1ccc(Sc2cccc(Cl)c2C)n1` registered a melting point of 87 to 88 °C.
With `N#CNC1NN=C(c2ccc3ccccc3c2)S1` (stereo not given) the figure was more than 260 °C.
`CCc1c(-c2ccc(OCc3ccccc3)cc2)c2cc(C(=O)OC)c3c(NC(C)=O)ccc1n23` had a melting point of 210 to 213 °C.
With `CCC(CC)c1ccc(Cl)c2nc3n(c12)CCCCN3c1ccc(Cl)cc1Cl`, the melting point was in the range of 160 to 162 °C.
`CNS(=O)(=O)c1ccc(Oc2ccc(Cl)cc2)cc1` had a melting point of 80 to 83 °C.
Take `COc1ccc(CN(C)C(=O)c2c(-c3ccncc3)c(-c3ccc(F)cc3)nn2C)cc1`: the melting point was 150 to 153 °C.
As for `O=C(O)CCCCCCCCC=Cc1ccco1`, the melting point was 45 to 46 °C.
For `CC(=N)Nc1cc(C)ccc1N1CCOCC1`, the melting point stood at 121 °C.
On to `COc1ccc(C(=O)NCCCCCCCCNC(=O)c2ccc(OC)cc2)cc1`, for which the melting point lay within 175 to 176 °C.
Next, `Nc1ccccc1NC(=O)c1ccc(CNC(=O)c2[nH]c(-c3ccc(O)cc3)cc2-c2ccccc2)cc1`: 241 to 242 °C; `Cc1oc(C=Cc2cccc(Cl)c2)nc1CO`: 147 to 148 °C.
In the case of `CC(C)(C)OC(=O)NC12CCC1CN(c1c(F)cc3c(=O)c(C(=O)O)cn(C4CC4)c3c1F)C2` (stereo not given), the melting point lay within 211 to 215 °C.
Compound `CCN(C)C(=O)Nc1cc(C(C)(C)C)on1` showed a melting point of 88.5 to 89.5 °C.
As for `CCCOc1ccccc1C1=NC(=O)C2=NC(SC)=NC2=N1`, the melting point fell in the range of 245 to 247 °C.
With `Cc1cccc(-c2sc(N)nc2-c2ccc3ncoc3c2)n1` the figure was 188 to 190 °C; with `Cc1sc(-c2ccc(C(F)(F)F)cc2)nc1CCOc1ccc(CCC(=O)O)cc1`, 142 to 147 °C; with `CSc1nnc(-c2ccccc2Nc2c(Cl)ccc(C)c2Cl)o1`, 170 to 171 °C.
Compound `O=C(O)c1cc2cc(OCCNC[C@@H](O)c3csc(C(F)(F)F)n3)ccc2o1` returned a melting point of 155 to 163 °C.
With `CC(C)c1ccc(N(Cc2ccc(N(C)C)cc2)C(=O)C2CCCc3cc(OCCO)ccc32)cc1` (stereo not given) the figure was 141 °C.
Consider `CNC(=O)C(Cc1ccc([N+](=O)[O-])cc1)NC(=O)Nc1n[nH]c(=S)s1` (stereo not given), for which the melting point fell in the range of 228 to 230 °C.
`COc1ccc2c(c1)CCC([C@@H]1CC[C@H](O)[C@@]1(C)CCO)C2` (stereo not given in full) had a melting point of 151 to 153 °C.
As for `CCc1ccc(C2CCN(CCCCNC(=O)c3ccc(NC(=O)c4ccc(Cl)cc4)cc3)CC2)c(OC)c1`, the melting point came out at 235 °C.
In turn, `Nc1ccnc(Cl)c1Br` returned a melting point of 146 °C.
`CCCCC(=N)NC(=S)Nc1cccc(Cl)c1` registered a melting point of 142 to 145 °C.
Regarding `CC[C@H](C)[C@H](O)C(=O)N1CCC(Oc2cc3ncnc(Nc4cccc(Cl)c4F)c3cc2OC)CC1`, the melting point fell in the range of 114 to 118 °C.
The compound `O=C(O)c1cn2c3c(c(Cl)c(F)cc3c1=O)SCC2` displayed a melting point of 322 to 324 °C.
`C#CCOc1nc(-n2ccnc2)c(I)c(C(F)(F)F)n1` gave a melting point of 128 to 129 °C.
Take `COCCN1C(C)=C(C(=O)OC)C(CCOC)(c2ccccc2Cl)C(C(=O)OC)=C1C`: the melting point lay in the range of 120 to 121 °C.
`COC=C(C#CCON=C(C)c1cccc(C(F)(F)F)c1)C(=O)OC` came in with a melting point of 57 to 58 °C.
With `Cc1c(C)n(-c2ccccc2)c2ncn(C)c(=O)c12`, the melting point lay within 207 to 208 °C.
In turn, `CN1C(=O)[C@@H](CN2CCCCC2)C[C@H]1c1ccc(-c2ccccc2Cl)s1` showed a melting point of 73 to 75 °C.
For the compound `Oc1ncnc2c(-c3ccc(Br)cc3)cnn12`, the melting point was more than 300 °C.
Regarding `CC(=O)Nc1cccc2c1C(=O)c1c-2n[nH]c1-c1cccs1`, the melting point worked out at 269 °C.
In turn, `COc1ccc(CC(C)=O)cc1SC` registered a melting point of 74 to 75 °C.
Take `O=C(O)Cc1ccc(NC(=O)C(Cn2ccnc2)NS(=O)(=O)c2ccc(Br)cc2)cc1` (racemic): the melting point is 131 to 140 °C.
